Values quoted from earlier work, collected in publication PMC13109691 (Environmental and Molecular Mutagenesis, 2026).

Conditions: source not stated

For `COc1ccc(C(=O)c2ccccc2)c(O)c1` [Oxybenzone], the “Lipophilicity (logP)” value is listed as 3.79.
